US20230091047A1 (priority 2019, published 2023)

What was measured:
[1] = test system: HBV (HepG2.117 cell line, inducibly HBV producing); assay: Anti-HBV activity: intracellular HBV DNA by real-time PCR in HepG2.117 cells after 3 days of treatment; type: cell-based, hepatitis B virus; conditions: Hepatitis B virus, HepG2.117, 72 h, HepG2.117 cells, 3 days of treatment, intracellular HBV DNA by real-time PCR; mean value; read-out: EC50 (μM, mean value)
How it was run: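 Readout is intracellular HBV DNA, measured by real-time PCR with HBV-specific primers and probe after 3 days of exposure to serial compound dilutions. Cells are the stable HepG2.117 line, where HBV replication is induced in the absence of doxycycline.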

[2] = in vitro; type: cell-based; conditions: human, HepG2 or HepG2.117 cells, 3-days incubation (unmarked values), ATPlite; mean value
How it was run: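 Luminescent ATP quantitation served as the viability endpoint following a 3- or 4-day incubation with test compounds.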

CNC(=O)c1cnc(-n2c(NC)nc3c(c2=O)C[C@@H](C)N(C(=O)c2ccc(Cl)c(Cl)c2)C3)cn1 [Compound C287, 5-[(6R)-7-(3,4-dichlorobenzoyl)-6-methyl-2-(methylamino)-4-oxo-5,6,7,8-tetrahydropyrido[3,4-d]pyrimidin-3(4H)-yl]-N-methylpyrazine-2-carboxamide]
EC50 [1]: 0.75 µM | CC50 at 3 days [2]: > 50 µM

CNC(=O)c1cnc(-n2c(NC(C)C)nc3c(c2=O)C[C@@H](C)N(C(=O)c2ccc(Cl)c(Cl)c2)C3)cn1 [Compound C288, 5-[(6R)-7-(3,4-dichlorobenzoyl)-6-methyl-4-oxo-2-[(propan-2-yl)amino]-5,6,7,8-tetrahydropyrido[3,4-d]pyrimidin-3(4H)-yl]-N-methylpyrazine-2-carboxamide]
EC50 [1]: 0.07 µM | CC50 at 3 days [2]: > 50 µM

CNC(=O)c1ccc(-n2c(OC(C)C)nc3c(c2=O)C[C@@H](C)N(C(=O)c2ccc(Cl)c(Cl)c2)C3)cc1 [Compound C289, 4-[(6R)-7-(3,4-dichlorobenzoyl)-6-methyl-4-oxo-2-[(propan-2-yl)oxy]-5,6,7,8-tetrahydropyrido[3,4-d]pyrimidin-3(4H)-yl]-N-methylbenzamide]
EC50 [1]: 0.08 µM | CC50 at 3 days [2]: > 50 µM

CNC(=O)c1cc(-n2c(NC(C)C)nc3c(c2=O)C[C@@H](C)N(C(=O)c2ccc(Cl)c(Cl)c2)C3)nn1C [Compound C292, 3-[(6R)-7-(3,4-dichlorobenzoyl)-6-methyl-4-oxo-2-[(propan-2-yl)amino]-5,6,7,8-tetrahydropyrido[3,4-d]pyrimidin-3(4H)-yl]-N,1-dimethyl-1H-pyrazole-5-carboxamide]
EC50 [1]: 0.04 µM | CC50 at 3 days [2]: > 50 µM

CNC(=O)c1ccc(-n2c(NC(C)C)nc3c(c2=O)C[C@@H](C)N(C(=O)c2ccc(Cl)c(Cl)c2)C3)c(Cl)c1 [Compound C293, 3-chloro-4-[(6R)-7-(3,4-dichlorobenzoyl)-6-methyl-4-oxo-2-[(propan-2-yl)amino]-5,6,7,8-tetrahydropyrido[3,4-d]pyrimidin-3(4H)-yl]-N-methylbenzamide]
EC50 [1]: 0.06 µM | CC50 at 3 days [2]: 34.9 µM

CNC(=O)c1ccc(-n2c(N[C@@H](C)C3CC3)nc3c(c2=O)C[C@@H](C)N(C(=O)c2ccc(Cl)c(Cl)c2)C3)cc1 [Compound C294, 4-[(6R)-2-{[(1S)-1-cyclopropylethyl]amino}-7-(3,4-dichlorobenzoyl)-6-methyl-4-oxo-5,6,7,8-tetrahydropyrido[3,4-d]pyrimidin-3(4H)-yl]-N-methylbenzamide]
EC50 [1]: 0.05 µM | CC50 at 3 days [2]: 26.5 µM

CNC(=O)c1ccc(-n2c(N[C@H](C)C3CC3)nc3c(c2=O)C[C@@H](C)N(C(=O)c2ccc(Cl)c(Cl)c2)C3)cc1 [Compound C295, 4-[(6R)-2-{[(1R)-1-cyclopropylethyl]amino}-7-(3,4-dichlorobenzoyl)-6-methyl-4-oxo-5,6,7,8-tetrahydropyrido[3,4-d]pyrimidin-3(4H)-yl]-N-methylbenzamide]
EC50 [1]: 0.22 µM | CC50 at 3 days [2]: 37.2 µM

CNC(=O)c1ccc(-n2c(NC3(C)CC3)nc3c(c2=O)C[C@@H](C)N(C(=O)c2ccc(Cl)c(Cl)c2)C3)cc1 [Compound C297, 4-[(6R)-7-(3,4-dichlorobenzoyl)-6-methyl-2-[(1-methylcyclopropyl)amino]-4-oxo-5,6,7,8-tetrahydropyrido[3,4-d]pyrimidin-3(4H)-yl]-N-methylbenzamide]
EC50 [1]: 0.05 µM | CC50 at 3 days [2]: > 50 µM

CNC(=O)c1ccc(-n2c(NC(C)C)nc3c(c2=O)C[C@@H](C)N(C(=O)c2ccc(Cl)c(Cl)c2)C3)c(C)c1 [Compound C300a, 4-[(6R)-7-(3,4-dichlorobenzoyl)-6-methyl-4-oxo-2-[(propan-2-yl)amino]-5,6,7,8-tetrahydropyrido[3,4-d]pyrimidin-3(4H)-yl]-N,3-dimethylbenzamide]
EC50 [1]: 0.06 µM | CC50 at 3 days [2]: > 50 µM

C#C[C@H](C)Nc1nc2c(c(=O)n1-c1ccc(C(=O)NC)cc1)C[C@@H](C)N(C(=O)c1ccc(Cl)c(Cl)c1)C2 [Compound C302, 4-[(6R)-2-{[(2S)-but-3-yn-2-yl]amino}-7-(3,4-dichlorobenzoyl)-6-methyl-4-oxo-5,6,7,8-tetrahydropyrido[3,4-d]pyrimidin-3(4H)-yl]-N-methylbenzamide]
EC50 [1]: 0.06 µM | CC50 at 3 days [2]: > 50 µM

CNC(=O)c1ccc(-n2c(N3CCC3(C)C)nc3c(c2=O)C[C@@H](C)N(C(=O)c2ccc(Cl)c(Cl)c2)C3)cc1 [Compound C303, 4-[(6R)-7-(3,4-dichlorobenzoyl)-2-(2,2-dimethylazetidin-1-yl)-6-methyl-4-oxo-5,6,7,8-tetrahydropyrido[3,4-d]pyrimidin-3(4H)-yl]-N-methylbenzamide]
EC50 [1]: 0.07 µM | CC50 at 3 days [2]: 26.7 µM

CNC(=O)c1ccc(-n2c(NC(C)C)nc3c(c2=O)C[C@@H](C)N(C(=O)c2ccc(Cl)c(Cl)c2)C3)nc1 [Compound C304, 6-[(6R)-7-(3,4-dichlorobenzoyl)-6-methyl-4-oxo-2-[(propan-2-yl)amino]-5,6,7,8-tetrahydropyrido[3,4-d]pyrimidin-3(4H)-yl]-N-methylpyridine-3-carboxamide]
EC50 [1]: 0.07 µM | CC50 at 3 days [2]: > 50 µM

CNc1noc2cc(-n3c(NC(C)C)nc4c(c3=O)C[C@@H](C)N(C(=O)c3ccc(Cl)c(Cl)c3)C4)ccc12 [Compound C305, (6R)-7-(3,4-dichlorobenzoyl)-6-methyl-3-[3-(methylamino)-1,2-benzoxazol-6-yl]-2-[(propan-2-yl)amino]-5,6,7,8-tetrahydropyrido[3,4-d]pyrimidin-4(3H)-one]
EC50 [1]: 0.07 µM | CC50 at 3 days [2]: > 50 µM

CNC(=O)c1ccc(-n2c(N[C@@H](C)c3cccc(F)c3)nc3c(c2=O)C[C@@H](C)N(C(=O)c2ccc(Cl)c(Cl)c2)C3)cc1 [Compound C306, 4-[(6R)-7-(3,4-dichlorobenzoyl)-2-{[(1S)-1-(3-fluorophenyl)ethyl]amino}-6-methyl-4-oxo-5,6,7,8-tetrahydropyrido[3,4-d]pyrimidin-3(4H)-yl]-N-methylbenzamide]
EC50 [1]: 0.08 µM | CC50 at 3 days [2]: 19.3 µM

CNC(=O)c1ccc(-n2c(N3CCCC3(C)C)nc3c(c2=O)C[C@@H](C)N(C(=O)c2ccc(Cl)c(Cl)c2)C3)cc1 [Compound C307, 4-[(6R)-7-(3,4-dichlorobenzoyl)-2-(2,2-dimethylpyrrolidin-1-yl)-6-methyl-4-oxo-5,6,7,8-tetrahydropyrido[3,4-d]pyrimidin-3(4H)-yl]-N-methylbenzamide]
EC50 [1]: 0.09 µM | CC50 at 3 days [2]: 28 µM

Cc1cc(-n2cccn2)ccc1-n1c(NC(C)C)nc2c(c1=O)C[C@@H](C)N(C(=O)c1ccc(Cl)c(Cl)c1)C2 [Compound C308, (6R)-7-(3,4-dichlorobenzoyl)-6-methyl-3-[2-methyl-4-(1H-pyrazol-1-yl)phenyl]-2-[(propan-2-yl)amino]-5,6,7,8-tetrahydropyrido[3,4-d]pyrimidin-4(3H)-one]
EC50 [1]: 0.11 µM | CC50 at 3 days [2]: > 50 µM

CC(C)Nc1nc2c(c(=O)n1-c1ccc(-c3nccn3C)cc1Cl)C[C@@H](C)N(C(=O)c1ccc(Cl)c(Cl)c1)C2 [Compound C313, (6R)-3-[2-chloro-4-(1-methyl-1H-imidazol-2-yl)phenyl]-7-(3,4-dichlorobenzoyl)-6-methyl-2-[(propan-2-yl)amino]-5,6,7,8-tetrahydropyrido[3,4-d]pyrimidin-4(3H)-one]
EC50 [1]: 0.12 µM | CC50 at 3 days [2]: 24.4 µM

CNC(=O)c1ccc(-n2c(N[C@@H](C)c3ccccc3F)nc3c(c2=O)C[C@@H](C)N(C(=O)c2ccc(Cl)c(Cl)c2)C3)cc1 [Compound C316, 4-[(6R)-7-(3,4-dichlorobenzoyl)-2-{[(1S)-1-(2-fluorophenyl)ethyl]amino}-6-methyl-4-oxo-5,6,7,8-tetrahydropyrido[3,4-d]pyrimidin-3(4H)-yl]-N-methylbenzamide]
EC50 [1]: 0.13 µM | CC50 at 3 days [2]: 27.8 µM

CNC(=O)c1ccc(-n2c(NC(C)C)nc3c(c2=O)C[C@@H](C)N(C(=O)c2ccc(Cl)c(Cl)c2)C3)cc1OC [Compound C317, 4-[(6R)-7-(3,4-dichlorobenzoyl)-6-methyl-4-oxo-2-[(propan-2-yl)amino]-5,6,7,8-tetrahydropyrido[3,4-d]pyrimidin-3(4H)-yl]-2-methoxy-N-methylbenzamide]
EC50 [1]: 0.14 µM | CC50 at 3 days [2]: > 50 µM

CNC(=O)c1cc(Cl)c(-n2c(NC(C)C)nc3c(c2=O)C[C@@H](C)N(C(=O)c2ccc(Cl)c(Cl)c2)C3)cc1OC [Compound C322, 5-chloro-4-[(6R)-7-(3,4-dichlorobenzoyl)-6-methyl-4-oxo-2-[(propan-2-yl)amino]-5,6,7,8-tetrahydropyrido[3,4-d]pyrimidin-3(4H)-yl]-2-methoxy-N-methylbenzamide]
EC50 [1]: 0.28 µM | CC50 at 3 days [2]: 24.2 µM

CC(C)Nc1nc2c(c(=O)n1-c1cccc3c1CNC3=O)C[C@@H](C)N(C(=O)c1ccc(Cl)c(Cl)c1)C2 [Compound C323, (6R)-7-(3,4-dichlorobenzoyl)-6-methyl-3-(1-oxo-2,3-dihydro-1H-isoindol-4-yl)-2-[(propan-2-yl)amino]-5,6,7,8-tetrahydropyrido[3,4-d]pyrimidin-4(3H)-one]
EC50 [1]: 0.35 µM | CC50 at 3 days [2]: > 50 µM

Cc1nc(-c2ccc(-n3c(NC(C)C)nc4c(c3=O)C[C@@H](C)N(C(=O)c3ccc(Cl)c(Cl)c3)C4)c(Cl)c2)c[nH]1 [Compound C324, (6R)-3-[2-chloro-4-(2-methyl-1H-imidazol-4-yl)phenyl]-7-(3,4-dichlorobenzoyl)-6-methyl-2-[(propan-2-yl)amino]-5,6,7,8-tetrahydropyrido[3,4-d]pyrimidin-4(3H)-one]
EC50 [1]: 0.41 µM | CC50 at 3 days [2]: > 50 µM

CNC(=O)c1ccc(-n2c(NCc3ccc4cc[nH]c4c3)nc3c(c2=O)C[C@@H](C)N(C(=O)c2ccc(Cl)c(Cl)c2)C3)cc1 [Compound C325, 4-[(6R)-7-(3,4-dichlorobenzoyl)-2-{[(1H-indol-6-yl)methyl]amino}-6-methyl-4-oxo-5,6,7,8-tetrahydropyrido[3,4-d]pyrimidin-3(4H)-yl]-N-methylbenzamide]
EC50 [1]: 0.42 µM | CC50 at 3 days [2]: 22.8 µM
